US20100069341A1, “TETRAHYDRO-PYRANOPYRAZOLE CANNABINOID MODULATORS” (priority 2005, published 2010)
Where two headings read alike, the source gives them in different places.

Experiments:
Cannabinoid CB1 Receptor = target: T1, Cannabinoid CB1 Receptor (Homo sapiens, UniProt P21554); test: Binding assay, cannabinoid CB1 receptor ([3H]-CP-55,940 displacement, SK-N-MC cell membranes); conditions: for inhibition at 0.2 µM: read-out: Cannabinoid CB1 Receptor Binding, percent inhibition
T1 construct: expressed in transfected cells; semi-purified membrane pellet
T1 sequence (P21554 whole entry): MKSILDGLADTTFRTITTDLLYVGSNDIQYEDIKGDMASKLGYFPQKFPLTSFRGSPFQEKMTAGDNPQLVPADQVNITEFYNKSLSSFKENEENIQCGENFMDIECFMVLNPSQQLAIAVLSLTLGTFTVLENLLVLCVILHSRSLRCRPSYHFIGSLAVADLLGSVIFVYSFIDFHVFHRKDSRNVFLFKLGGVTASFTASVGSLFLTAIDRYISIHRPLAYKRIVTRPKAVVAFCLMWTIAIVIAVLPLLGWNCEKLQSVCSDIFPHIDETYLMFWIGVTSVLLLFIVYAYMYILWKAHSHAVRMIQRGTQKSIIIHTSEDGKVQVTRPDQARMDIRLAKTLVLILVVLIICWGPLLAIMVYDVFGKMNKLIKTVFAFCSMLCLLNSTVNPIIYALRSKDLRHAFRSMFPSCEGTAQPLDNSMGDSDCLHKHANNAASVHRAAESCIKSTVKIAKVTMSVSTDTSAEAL
Method: (§1) Binding Assay for CB1 or CB2 Agonists or Inverse Agonists
(§2) The human CB1 and CB2 receptors were stably expressed in SK-N-MC cells transfected with pcDNA3 CB-1 (human) or pcDNA3 CB-2 (human). The cells were grown in T-180 cell culture flasks under standard cell culture conditions at 37° C. in a 5% CO2 atmosphere. The cells were harvested by trysinization and homogenized in a homogenization buffer (10 mM Tris, 0.2 mM MgCl2, 5 mM KCl, with protease inhibitors aprotinin, leupeptin, pepstatin A and bacitracin) and centrifuged (2000 g). The supernatant was then centrifuged in 2M sucrose (31,300 g) to produce a semi-purified membrane pellet. The pellet was resuspended in homogenization and store at −80° C.
On the day of the assay, the pellet was thawed on ice and diluted in assay buffer (50 mM Tris-HCl, 5 mM MgCl2, 2.5 mM EDTA, 0.5 mg/mL fatty acid free bovine serum albumin, pH 7.5). […] The plate was covered and incubated for 90 minutes at 30° C. The contents were then aspirated onto a Packard Unifilter GF/C filter bottom plate prewet with 0.5% polyethyleneimine. The wells of the polypropylene plate were rinsed and aspirated seven times with a 0.9% saline-0.5% Tween 20 solution. The Unifilter plate was dried, a scintillation cocktail was added to each well and the counts representing binding were quantitated in a TopCount scintillation counter.
(§3) For compounds tested, an IC50 binding value was obtained from percent inhibition studies in which various test concentrations were used. The binding value (in μM) was calculated by linear regression.

Cannabinoid CB2 Receptor = target: T2, Cannabinoid CB2 Receptor (Homo sapiens, UniProt P34972); test: Binding assay, cannabinoid CB2 receptor ([3H]-CP-55,940 displacement, SK-N-MC cell membranes); conditions: test concentration of 0.2 μM, human CB2 in SK-N-MC membranes; for inhibition at 0.2 µM: read-out: Cannabinoid CB2 Receptor Binding, percent inhibition
T2 construct: expressed in transfected cells; semi-purified membrane pellet
T2 sequence (P34972 whole entry): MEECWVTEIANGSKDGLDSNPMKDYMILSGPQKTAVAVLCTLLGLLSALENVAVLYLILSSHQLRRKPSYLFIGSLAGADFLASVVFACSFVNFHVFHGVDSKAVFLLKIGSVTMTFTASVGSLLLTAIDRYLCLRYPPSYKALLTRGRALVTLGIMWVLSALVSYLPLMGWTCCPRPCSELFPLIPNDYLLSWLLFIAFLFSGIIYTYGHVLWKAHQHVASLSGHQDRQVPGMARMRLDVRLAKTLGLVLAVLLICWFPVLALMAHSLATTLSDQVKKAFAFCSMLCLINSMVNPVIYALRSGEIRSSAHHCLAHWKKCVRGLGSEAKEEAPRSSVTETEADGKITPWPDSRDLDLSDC
Method: as §1, §2
On the day of the assay, the pellet was thawed on ice and diluted in assay buffer (50 mM Tris-HCl, 5 mM MgCl2, 2.5 mM EDTA, 0.5 mg/mL fatty acid free bovine serum albumin, pH 7.5). The diluted membrane was added with buffer, test compound or standard and the radioligand [H]^3+-CP-55,940 (0.2 nM) to the wells of a 96-well polypropylene plate. Non-specific binding was measured in wells containing 10 uM WIN 55,212. The plate was covered and incubated for 90 minutes at 30° C. The contents were then aspirated onto a Packard Unifilter GF/C filter bottom plate prewet with 0.5% polyethyleneimine. The wells of the polypropylene plate were rinsed and aspirated seven times with a 0.9% saline-0.5% Tween 20 solution. The Unifilter plate was dried, a scintillation cocktail was added to each well and the counts representing binding were quantitated in a TopCount scintillation counter.
as §3, with “regression. For compounds without an IC50 binding value, the percent inhibition (in %) was obtained at a test concentration of 0.2 μM.” for “regression.”

[1] = test concentration of 0.2 μM, human CB1 in SK-N-MC membranes

Compound	inhibition at 0.2 µM (Cannabinoid CB1 Receptor; [1]) [%]	inhibition at 0.2 µM (Cannabinoid CB2 Receptor) [%]	IC50 (Cannabinoid CB1 Receptor) [µM]	other results
O=C(NN1CCCCC1)c1nn(-c2ccc(Cl)cc2Cl)c2c1COC/C2=C\c1ccc(Cl)o1 [Cpd 64, (7Z)-7-(5-chloro-furan-2-ylmethylene)-1-(2,4-dichloro-phenyl)-1,4,6,7-tetrahydro-pyrano[4,3-c]pyrazole-3-carboxylic acid piperidin-1-ylamide]	62	12		
O=C(NN1CCCC1)c1nn(-c2ccc(Cl)cc2Cl)c2c1COC/C2=C\c1ccc(Cl)s1 [Cpd 57, (7Z)-7-(5-chloro-thiophen-2-ylmethylene)-1-(2,4-dichloro-phenyl)-1,4,6,7-tetrahydro-pyrano[4,3-c]pyrazole-3-carboxylic acid pyrrolidin-1-ylamide]	67	15		
O=C(NN1CC2CCCC2C1)c1nn(-c2ccc(Cl)cc2Cl)c2c1COC/C2=C\c1ccsc1 (centres unmarked) [Cpd 45, (7Z)-1-(2,4-dichloro-phenyl)-7-thiophen-3-ylmethylene-1,4,6,7-tetrahydro-pyrano[4,3-c]pyrazole-3-carboxylic acid (hexahydro-cyclopenta[c]pyrrol-2-yl)-amide]	84	19	0.02	
O=C(N[C@@H]1c2ccccc2C[C@@H]1O)c1nn(-c2ccc(Cl)cc2Cl)c2c1COC/C2=C\c1ccc(F)cc1 [Cpd 5, (7Z)-1-(2,4-dichloro-phenyl)-7-(4-fluoro-benzylidene)-1,4,6,7-tetrahydro-pyrano[4,3-c]pyrazole-3-carboxylic acid [(1R,2S)-2-hydroxy-indan-1-yl)-amide]	82	28	0.03	
C[C@H](NC(=O)c1nn(-c2ccc(Cl)cc2Cl)c2c1COC/C2=C\c1ccsc1)C1CCCCC1 [Cpd 41, (7Z)-1-(2,4-dichloro-phenyl)-7-thiophen-3-ylmethylene-1,4,6,7-tetrahydro-pyrano[4,3-c]pyrazole-3-carboxylic acid [(S)-1-cyclohexyl-ethyl]-amide]		21		inhibition at 0.2 µM (Cannabinoid CB1 Receptor): 56%
O=C(c1nn(-c2ccc(Cl)cc2)c2c1COC/C2=C\c1ccc(F)cc1)N1CCC[C@@H]1CO [Cpd 18, (7Z)-[1-(4-chloro-phenyl)-7-(4-fluoro-benzylidene)-1,4,6,7-tetrahydro-pyrano[4,3-c]pyrazol-3-yl]-[(2R)-2-hydroxymethyl-pyrrolidin-1-yl]-methanone]	30	14		
O=C(NN1CC2CCCC2C1)c1nn(-c2ccc(Cl)cc2Cl)c2c1COC/C2=C\c1ccc(Cl)s1 (centres unmarked) [Cpd 56, (7Z)-7-(5-chloro-thiophen-2-ylmethylene)-1-(2,4-dichloro-phenyl)-1,4,6,7-tetrahydro-pyrano[4,3-c]pyrazole-3-carboxylic acid (hexahydro-cyclopenta[c]pyrrol-2-yl)-amide]	74	0	0.04	
C[C@@H](NC(=O)c1nn(-c2ccc(Cl)cc2Cl)c2c1COC/C2=C\c1ccsc1)c1ccccc1 [Cpd 40, (7Z)-1-(2,4-dichloro-phenyl)-7-thiophen-3-ylmethylene-1,4,6,7-tetrahydro-pyrano[4,3-c]pyrazole-3-carboxylic acid [(R)-1-phenyl-ethyl]-amide]		21	0.01	inhibition at 0.2 µM (Cannabinoid CB1 Receptor): 84%
O=C(NNC1CCCCC1)c1nn(-c2ccc(Cl)cc2Cl)c2c1COC/C2=C\c1ccc(F)cc1 [Cpd 29, (7Z)-1-(2,4-dichloro-phenyl)-7-(4-fluoro-benzylidene)-1,4,6,7-tetrahydro-pyrano[4,3-c]pyrazole-3-carboxylic acid N′-cyclohexyl-hydrazide]	52	0		
CC1CCCC(C)N1NC(=O)c1nn(-c2ccc(Cl)cc2Cl)c2c1COC/C2=C\c1ccsc1 (centres unmarked) [Cpd 46, (7Z)-1-(2,4-dichloro-phenyl)-7-thiophen-3-ylmethylene-1,4,6,7-tetrahydro-pyrano[4,3-c]pyrazole-3-carboxylic acid (2,6-dimethyl-piperidin-1-yl)-amide]	68	20		
O=C(NN1CCCCC1)c1nn(-c2ccc(Cl)cc2)c2c1COC/C2=C\c1ccc(F)cc1 [Cpd 11, (7Z)-1-(4-chloro-phenyl)-7-(4-fluoro-benzylidene)-1,4,6,7-tetrahydro-pyrano[4,3-c]pyrazole-3-carboxylic acid piperidin-1-ylamide]	55	6		
(7Z)-azepan-1-yl-[1-(2,4-dichloro-phenyl)-7-(4-fluoro-benzylidene)-1,4,6,7-tetrahydro-pyrano[4,3-c]pyrazol-3-yl]-methanone [Cpd 28]				IC50 (Cannabinoid CB1 Receptor; human CB1 in SK-N-MC membranes, radioligand CP-55,940 0.2 nM, calculated by linear regression, read-out: Cannabinoid CB1 Receptor Binding, IC50 binding value): 0.009 µM; Cannabinoid CB1 Receptor Binding, percent inhibition (Cannabinoid CB1 Receptor; [1]): 88%; Cannabinoid CB2 Receptor Binding, percent inhibition (Cannabinoid CB2 Receptor): 10%
C[C@H](NC(=O)c1nn(-c2ccc(Cl)cc2Cl)c2c1COC/C2=C\c1ccc(F)cc1)c1ccccc1 [Cpd 1, (7Z)-1-(2,4-dichloro-phenyl)-7-(4-fluoro-benzylidene)-1,4,6 7-tetrahydro-pyrano[4,3-c]pyrazole-3-carboxylic acid [(1S)-1-phenyl-ethyl]-amide]	54	6		
O=C(c1nn(-c2ccc(Cl)cc2Cl)c2c1COC/C2=C\c1ccc(F)cc1)N1CCCC1 [Cpd 10, (7Z)-[1-(2,4-dichloro-phenyl)-7-(4-fluoro-benzylidene)-1,4,6,7-tetrahydro-pyrano[4,3-c]pyrazol-3-yl]-pyrrolidin-1-yl-methanone]	33	14		
O=C(NN1CC2CCCC2C1)c1nn(-c2ccc(Cl)cc2Cl)c2c1COC/C2=C\c1ccc(Cl)o1 (centres unmarked) [Cpd 71, (7Z)-7-(5-chloro-furan-2-ylmethylene)-1-(2,4-dichloro-phenyl)-1,4,6,7-tetrahydro-pyrano[4,3-c]pyrazole-3-carboxylic acid (hexahydro-cyclopenta[c]pyrrol-2-yl)-amide]	71	17	0.04	
(7Z)-7-(5-chloro-thiophen-2-ylmethylene)-1-(2,4-dichloro-phenyl)-1,4,6,7-tetrahydro-pyrano[4,3-c]pyrazole-3-carboxylic acid [(2S)-2-benzyl-pentyl]-amide [Cpd 59]				Cannabinoid CB1 Receptor Binding, percent inhibition (Cannabinoid CB1 Receptor; [1]): 38%; Cannabinoid CB2 Receptor Binding, percent inhibition (Cannabinoid CB2 Receptor): 17%
COC[C@H]1CCCN1NC(=O)c1nn(-c2ccc(Cl)cc2Cl)c2c1COC/C2=C\c1ccc(F)cc1 [Cpd 75, (7Z)-1-(2,4-dichloro-phenyl)-7-(4-fluoro-benzylidene)-1,4,6,7-tetrahydro-pyrano[4,3-c]pyrazole-3-carboxylic acid [(2R)-2-methoxymethyl-pyrroldin-1-yl]-amide]	68	15		
O=C(c1nn(-c2ccc(Cl)cc2Cl)c2c1COC/C2=C\c1ccc(F)cc1)N1CCCCC1 [Cpd 8, (7Z)-[1-(2,4-dichloro-phenyl)-7-(4-fluoro-benzylidene)-1,4,6,7-tetrahydro-pyrano[4,3-c]pyrazol-3-yl]-piperidin-1-yl-methanone]	45	7		
O=C(NN1CCCCC1)c1nn(-c2ccc(Cl)cc2Cl)c2c1COC/C2=C\c1cccs1 [Cpd 35, (7Z)-1-(2,4-dichloro-phenyl)-7-thiophen-2-ylmethylene-1,4,6,7-tetrahydro-pyrano[4,3-c]pyrazole-3-carboxylic acid piperidin-1-ylamide]	68	12		
O=C(NN1CCCCC1)c1nn(-c2ccc(Cl)cc2Cl)c2c1COC/C2=C\c1ccc(Cl)s1 [Cpd 54, (7Z)-7-(5-chloro-thiophen-2-ylmethylene)-1-(2,4-dichloro-phenyl)-1,4,6,7-tetrahydro-pyrano[4,3-c]pyrazole-3-carboxylic acid piperidin-1-ylamide]	78	13	0.02	
